Measurements: patent US12325697B2 (Nimbus Clio, Inc., priority 2021, dated 2025)

Target: Recombinant human Cbl-b (aa 36-427) (Homo sapiens (Human), UniProt Q13191)
Assay: Cbl-b Biochemical Assay (TR-FRET)
Conditions: read-out: TR-FRET hCbl-b IC50
Experimental: Recombinant human Cbl-b (aa 36-427) was expressed in E. coli, purified and biotinylated in vitro. The protein was diluted to 12 nM in freshly prepared assay buffer consisting of 50 mM HEPES, pH 7.0, 100 mM NaCl, 5 mM MgCl2, 0.01% Triton-X 100, 0.01% BSA and 1 mM DTT. Recombinant human Src (aa 254-536)-[…]-Zap-70 (aa 281-297) fusion protein was expressed in E. coli and purified. Protein was diluted in assay buffer to 2-5 nM and supplemented with ATP to 1 mM. Fluorescein-BODIPY labeled UBE[…]([…])-Ub was prepared by conjugating ubiquitin (Ub) labeled at its N-terminus with Fluorescein-BODIPY maleimide (ThermoFisher Catalog no B10250) to E. coli expressed and purified UBE[…]([…]) [see Dou et al Nature Structural and Molecular Biology 8: 982-987, 2013]. Recombinant human UBE2D2([…]) was expressed in E. coli, purified and ubiquitinated and Bodipy labelled in vitro. Protein was diluted to 200 nM in assay buffer without MgCl2 (or Cisbio PPI buffer). Streptavidin-Terbium was added to 2 nM and EDTA to 10 mM, to provide a binding assay mix. Compounds were dissolved in DMSO and diluted to prepare a ten-point dilution series. 100 nl of each compound concentration was dispensed in duplicate in a 384 well black assay plate using acoustic dispensing. Wells for maximum signal controls received 100 nl of DMSO only and wells for minimum signal controls received 100 nl of a reference inhibitor compound at a final assay concentration of […] to produce 100% inhibition. 5 μl of diluted Cbl-b enzyme was added to all wells of the assay plate and incubated at RT for 30-60 min. The enzyme assay was initiated by addition of 5 μl of Src-Zap/ATP mix to all wells, and the plate incubated at RT for 60 min. The enzyme reaction was terminated and the binding reaction was initiated by adding 10 μl of binding assay mix to all wells and incubating the plate at RT for 60 min prior to assay read. Final assay conditions consisted of 6 nM Cbl-b, 1-2.5 nM Src-Zap70, 0.5 mM ATP, 1% (v/v) DMSO (enzyme reaction) and 100 nM UBE2D2([…])-Ub-FL-BODIPY, 5 mM EDTA, 1 nM Streptavidin-Tb (binding reaction). The HTRF assay signal was measured at 520 nm on an Envision plate reader, with reference signal at 485 or 620 nm. Data was normalized using maximum and minimum assay controls: % Inhibition=100-(100*((maximum control)-unknown)/(maximum control-minimum control)). A 4-parameter dose-response equation was used to fit the normalized dose-response data and derive an IC50 for test compounds.

Chain of Recombinant human Cbl-b (aa 36-427) (Q13191 36-427): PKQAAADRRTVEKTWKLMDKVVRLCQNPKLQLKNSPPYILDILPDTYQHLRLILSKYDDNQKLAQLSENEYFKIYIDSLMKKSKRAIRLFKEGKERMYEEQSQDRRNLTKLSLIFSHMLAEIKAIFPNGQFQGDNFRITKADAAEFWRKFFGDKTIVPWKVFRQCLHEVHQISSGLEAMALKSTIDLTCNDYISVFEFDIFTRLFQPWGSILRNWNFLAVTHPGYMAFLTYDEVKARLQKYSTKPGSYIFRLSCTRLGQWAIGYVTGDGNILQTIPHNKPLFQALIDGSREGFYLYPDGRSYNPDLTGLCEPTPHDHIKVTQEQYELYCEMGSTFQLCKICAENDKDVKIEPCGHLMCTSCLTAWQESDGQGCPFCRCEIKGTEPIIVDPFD

SMILES	IC50 [µM]
Cn1cnnc1-c1ccccc1-c1cccc(N2Cc3c(cc(CN[C@H]4CCC[C@H]4O)cc3C(F)(F)F)C2=O)c1 [AA-2, 6-((((1S,2R)-2-Hydroxycyclopentyl)amino)methyl)-2-(2′-(4-methyl-4H-1,2,4-triazol-3-yl)-[1,1′-biphenyl]-3-yl)-4-(trifluoromethyl)isoindolin-1-one]	≤ 0.2
Cn1cnnc1-c1nccn1-c1cccc(N2Cc3c(cccc3C(F)(F)F)C2=O)c1 [AAA-8, 2-[3-[2-(4-Methyl-1,2,4-triazol-3-yl)imidazol-1-yl]phenyl]-4-(trifluoromethyl)-3H-isoindol-1-one]	10 to 50
Cn1cnnc1-c1cnn(C)c1-c1cccc(N2Cc3c(cc(CN4CCC5(CC5)C4)cc3C(F)(F)F)C2=O)c1 [AAD-1, 6-((5-Azaspiro [2.4]heptan-5-yl)methyl)-2-(3-(1-methyl-4-(4-methyl-4H-1,2,4-triazol-3-yl)-1H-pyrazol-5-yl)phenyl)-4-(trifluoromethyl)isoindolin-1-one]	≤ 0.2
Cn1cnnc1-c1cnn(C)c1-c1cccc(NC(=O)c2cc(=O)n(C)c(C3CC3)n2)c1 [AAE-6, 2-Cyclopropyl-1-methyl-N-[3-[2-methyl-4-(4-methyl-1,2,4-triazol-3-yl)pyrazol-3-yl]phenyl]-6-oxopyrimidine-4-carboxamide]	10 to 50
CCn1cc(-c2nncn2C)c(-c2cccc(N3Cc4c(cccc4C(F)(F)F)C3=O)c2)n1 [AAF-9, 2-[3-[1-Ethyl-4-(4-methyl-1,2,4-triazol-3-yl)pyrazol-3-yl]phenyl]-4-(trifluoromethyl)-3H-isoindol-1-one]	10 to 50
Cn1cnnc1-c1ccc(C(F)(F)F)cc1-c1cccc(N2Cc3c(cccc3C(F)(F)F)C2=O)c1 [AAG-8, 2-(2′-(4-Methyl-4H-1,2,4-triazol-3-yl)-5′-(trifluoromethyl)-[1,1′-biphenyl]-3-yl)-4-(trifluoromethyl)isoindolin-1-one]	10 to 50
CCOc1cc(-c2c(-c3nncn3C)cnn2C)cc(N2Cc3c(cccc3C(F)(F)F)C2=O)c1 [AAI-7, 2-(3-Ethoxy-5-(1-methyl-4-(4-methyl-4H-1,2,4-triazol-3-yl)-1H-pyrazol-5-yl)phenyl)-4-(trifluoromethyl) isoindolin-1-one]	0.2 to 1
Cn1cnnc1-c1ccc(Br)cc1-c1cccc(N2Cc3c(cccc3C(F)(F)F)C2=O)c1 [AAJ-9, 2-(5′-Bromo-2′-(4-methyl-4H-1,2,4-triazol-3-yl)-[1,1′-biphenyl]-3-yl)-4-(trifluoromethyl)isoindolin-1-one]	1 to 10
Cn1cnnc1-c1ccccc1-c1cccc(N2Cc3c(cccc3C(F)(F)F)C2=O)c1 [AAK-2, 2-(2′-(4-Methyl-4H-1,2,4-triazol-3-yl)-[1,1′-biphenyl]-3-yl)-4-(trifluoromethyl)isoindolin-1-one]	0.2 to 1
Cn1cc(-c2nncn2C)c(-c2cccc(N3Cc4c(cccc4C(F)(F)F)C3=O)c2)n1 [AAL-8, 2-[3-[1-Methyl-4-(4-methyl-1,2,4-triazol-3-yl)pyrazol-3-yl]phenyl]-4-(trifluoromethyl)-3H-isoindol-1-one]	10 to 50
Cn1cnnc1-c1cnn(C)c1-c1ccnc(N2Cc3c(cccc3C(F)(F)F)C2=O)c1 [AAM-3, 2-(4-(1-Methyl-4-(4-methyl-4H-1,2,4-triazol-3-yl)-1H-pyrazol-5-yl)pyridin-2-yl)-4-(trifluoromethyl)isoindolin-1-one]	1 to 10
Cn1cnnc1-c1cnn(C)c1-c1cc(Cl)nc(N2Cc3c(cccc3C(F)(F)F)C2=O)c1 [AAN-7, 2-(6-Chloro-4-(1-methyl-4-(4-methyl-4H-1,2,4-triazol-3-yl)-1H-pyrazol-5-yl)pyridin-2-yl)-4-(trifluoromethyl)isoindolin-1-one]	1 to 10
Cn1cnnc1-c1cnn(C)c1-c1cc(O)nc(N2Cc3c(cccc3C(F)(F)F)C2=O)c1 [AAO-1, 2-(6-Hydroxy-4-(1-methyl-4-(4-methyl-4H-1,2,4-triazol-3-yl)-1H-pyrazol-5-yl)pyridin-2-yl)-4-(trifluoromethyl)isoindolin-1-one]	10 to 50
Cn1cnnc1-c1ccccc1-c1cccc(NC(=O)c2cc(=O)[nH]c(C3CC3)n2)c1 [AAP-1, 2-Cyclopropyl-N-(2′-(4-methyl-4H-1,2,4-triazol-3-yl)-[1,1′-biphenyl]-3-yl)-6-oxo-1,6-dihydropyrimidine-4-carboxamide]	1 to 10
Cn1cnnc1-c1ccccc1-c1cccc(N2Cc3c(cc(CN4CCC5(CC5)C4)cc3C(F)(F)F)C2=O)c1 [AAQ-1, 6-((5-Azaspiro [2.4]heptan-5-yl)methyl)-2-(2′-(4-methyl-4H-1,2,4-triazol-3-yl)-[1,1′-biphenyl]-3-yl)-4-(trifluoromethyl)isoindolin-1-one]	≤ 0.2
CCOc1cc(-c2ccccc2-c2nncn2C)cc(N2Cc3c(cccc3C(F)(F)F)C2=O)c1 [AAR-5, 2-(5-Ethoxy-2′-(4-methyl-4H-1,2,4-triazol-3-yl)-[1,1′-biphenyl]-3-yl)-4-(trifluoromethyl) isoindolin-1-one]	0.2 to 1
Cn1c(O)nnc1-c1cnccc1-c1cccc(N2Cc3c(cccc3C(F)(F)F)C2=O)c1 [AAS-6, 2-(3-(3-(5-Hydroxy-4-methyl-4H-1,2,4-triazol-3-yl)pyridin-4-yl)phenyl)-4-(trifluoromethyl)isoindolin-1-one]	10 to 50
Cn1cnnc1-c1ccccc1-c1cc(Cl)nc(N2Cc3c(cccc3C(F)(F)F)C2=O)c1 [AAT-1, 2-(6-Chloro-4-(2-(4-methyl-4H-1,2,4-triazol-3-yl)phenyl)pyridin-2-yl)-4-(trifluoromethyl)isoindolin-1-one]	0.2 to 1
CCNc1cc(-c2ccccc2-c2nncn2C)cc(N2Cc3c(cccc3C(F)(F)F)C2=O)n1 [AAU-1, 2-(6-(Ethylamino)-4-(2-(4-methyl-4H-1,2,4-triazol-3-yl)phenyl)pyridin-2-yl)-4-(trifluoromethyl)isoindolin-1-one]	≤ 0.2
Cc1nc[nH]c1-c1ccccc1-c1cccc(N2Cc3c(cccc3C(F)(F)F)C2=O)c1 [AAV-6, 2-(2′-(4-Methyl-1H-imidazol-5-yl)-[1,1′-biphenyl]-3-yl)-4-(trifluoromethyl)isoindolin-1-one]	1 to 10
Cn1cnnc1-c1cnn(C)c1-c1cc(NS(C)(=O)=O)nc(N2Cc3c(cccc3C(F)(F)F)C2=O)c1 [AAW-2, N-(4-(1-Methyl-4-(4-methyl-4H-1,2,4-triazol-3-yl)-1H-pyrazol-5-yl)-6-(1-oxo-4-(trifluoromethyl)isoindolin-2-yl)pyridin-2-yl)methanesulfonamide]	1 to 10
Cn1ncnc1-c1ccccc1-c1cccc(N2Cc3c(cccc3C(F)(F)F)C2=O)c1 [AAX-2, 2-(2′-(1-Methyl-1H-1,2,4-triazol-5-yl)-[1,1′-biphenyl]-3-yl)-4-(trifluoromethyl)isoindolin-1-one]	10 to 50
Cn1cnnc1-c1cnccc1-c1cccc(N2Cc3c(cccc3C(F)(F)F)C2=O)c1 [AAY-6, 2-[3-[3-(4-Methyl-1,2,4-triazol-3-yl)-pyridin-4-yl]-phenyl]-4-(trifluoromethyl)-3H-isoindol-1-one]	1 to 10
Cc1conc1-c1ccccc1-c1cccc(N2Cc3c(cccc3C(F)(F)F)C2=O)c1 [AAZ-7, 2-(2′-(4-Methylisoxazol-3-yl)-[1,1′-biphenyl]-3-yl)-4-(trifluoromethyl)isoindolin-1-one]	1 to 10
C[C@H]1CN(Cc2cc3c(c(C(F)(F)F)c2)CN(c2cccc(-c4ccccc4-c4nncn4C)c2)C3=O)CCO1 [AB-2, (S)-2-(2′-(4-Methyl-4H-1,2,4-triazol-3-yl)-[1,1′-biphenyl]-3-yl)-6-((2-methylmorpholino)methyl)-4-(trifluoromethyl)isoindolin-1-one]	≤ 0.2
O=C1c2cccc(C(F)(F)F)c2CN1c1cccc(-c2ccccc2-c2nnco2)c1 [ABA-4, 2-(2′-(1,3,4-Oxadiazol-2-yl)-[1,1′-biphenyl]-3-yl)-4-(trifluoromethyl)isoindolin-1-one]	10 to 50
Cn1cnnc1-c1ccncc1-c1cccc(N2Cc3c(cccc3C(F)(F)F)C2=O)c1 [ABB-5, 2-[3-[4-(4-Methyl-1,2,4-triazol-3-yl)pyridin-3-yl]phenyl]-4-(trifluoromethyl)-3H-isoindol-1-one]	1 to 10
CCNc1cc(-c2c(-c3nncn3C)cnn2C)cc(N2Cc3c(cc(CN4CCC5(CC5)C4)cc3C(F)(F)F)C2=O)n1 [ABC-7, 6-((5-Azaspiro [2.4]heptan-5-yl)methyl)-2-(6-(ethylamino)-4-(1-methyl-4-(4-methyl-4H-1,2,4-triazol-3-yl)-1H-pyrazol-5-yl)pyridin-2-yl)-4-(trifluoromethyl)isoindolin-1-one]	< 0.2
